Measurements: ChEMBL document CHEMBL5518188, “Discovery of 4-amino-1,6-dihydro-7H-pyrrolo[2,3-d]pyridazin-7-one derivatives as potential receptor-interacting serine/threonine-protein kinase 1 (RIPK1) inhibitors” (Eur J Med Chem, 2024)
The source made the active and inactive calls. The rule behind the calls is not given here.

Assays:
HT-29 = test: Anti-necroptosis activity against TSZ-induced human HT-29 cells by microscopic analysis; assay type: functional, cell-based
[1] = Clearance in BALB/c mouse at 10 mg/kg, po; assay type: ADME, organism-based; settings: BALB/c, in vivo
[2] = AUC (0 to t) in BALB/c mouse at 10 mg/kg, po; assay type: ADME, organism-based; settings: BALB/c, in vivo
[3] = Cmax in BALB/c mouse at 10 mg/kg, iv; assay type: ADME, organism-based; settings: in vivo
[4] = AUC (0 to t) in BALB/c mouse at 10 mg/kg, iv; assay type: ADME, organism-based; settings: BALB/c, in vivo
[5] = Apparent volume of distribution in BALB/c mouse at 10 mg/kg, iv; assay type: ADME, organism-based; settings: in vivo, read-out: Vz
[6] = biological target: T1, Discoidin domain-containing receptor 2 (Homo sapiens) (UniProt Q16832); test: Inhibition of DDR2 (unknown origin)
T1 sequence (whole entry): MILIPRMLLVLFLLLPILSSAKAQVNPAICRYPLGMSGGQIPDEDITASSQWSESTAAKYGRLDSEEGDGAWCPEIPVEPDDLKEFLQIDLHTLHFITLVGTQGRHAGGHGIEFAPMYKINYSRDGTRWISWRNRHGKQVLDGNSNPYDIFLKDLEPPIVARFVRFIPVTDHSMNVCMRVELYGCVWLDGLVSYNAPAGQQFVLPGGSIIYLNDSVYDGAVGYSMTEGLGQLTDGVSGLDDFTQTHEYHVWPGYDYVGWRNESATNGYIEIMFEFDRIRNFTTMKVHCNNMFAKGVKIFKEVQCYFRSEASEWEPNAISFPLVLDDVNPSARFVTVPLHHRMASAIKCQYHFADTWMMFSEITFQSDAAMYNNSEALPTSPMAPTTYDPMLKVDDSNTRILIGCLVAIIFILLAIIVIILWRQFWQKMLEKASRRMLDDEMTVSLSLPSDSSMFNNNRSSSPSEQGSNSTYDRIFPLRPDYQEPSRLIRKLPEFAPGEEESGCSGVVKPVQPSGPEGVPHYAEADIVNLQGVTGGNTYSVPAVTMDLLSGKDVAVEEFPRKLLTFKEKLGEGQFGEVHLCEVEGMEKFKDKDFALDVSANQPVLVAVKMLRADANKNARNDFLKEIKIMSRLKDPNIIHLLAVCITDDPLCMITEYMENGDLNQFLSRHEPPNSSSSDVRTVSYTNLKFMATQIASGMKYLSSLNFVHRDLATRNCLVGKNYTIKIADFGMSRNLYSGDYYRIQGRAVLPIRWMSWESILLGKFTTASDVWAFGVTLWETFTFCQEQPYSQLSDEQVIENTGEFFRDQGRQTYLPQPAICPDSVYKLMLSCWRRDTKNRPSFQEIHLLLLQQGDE

[7] = biological target: T2, Receptor-interacting serine/threonine-protein kinase 1 (Homo sapiens) (UniProt Q13546); settings: HT-29, dose 3.0 nM, time 6.0 hrs
T2 sequence (whole entry): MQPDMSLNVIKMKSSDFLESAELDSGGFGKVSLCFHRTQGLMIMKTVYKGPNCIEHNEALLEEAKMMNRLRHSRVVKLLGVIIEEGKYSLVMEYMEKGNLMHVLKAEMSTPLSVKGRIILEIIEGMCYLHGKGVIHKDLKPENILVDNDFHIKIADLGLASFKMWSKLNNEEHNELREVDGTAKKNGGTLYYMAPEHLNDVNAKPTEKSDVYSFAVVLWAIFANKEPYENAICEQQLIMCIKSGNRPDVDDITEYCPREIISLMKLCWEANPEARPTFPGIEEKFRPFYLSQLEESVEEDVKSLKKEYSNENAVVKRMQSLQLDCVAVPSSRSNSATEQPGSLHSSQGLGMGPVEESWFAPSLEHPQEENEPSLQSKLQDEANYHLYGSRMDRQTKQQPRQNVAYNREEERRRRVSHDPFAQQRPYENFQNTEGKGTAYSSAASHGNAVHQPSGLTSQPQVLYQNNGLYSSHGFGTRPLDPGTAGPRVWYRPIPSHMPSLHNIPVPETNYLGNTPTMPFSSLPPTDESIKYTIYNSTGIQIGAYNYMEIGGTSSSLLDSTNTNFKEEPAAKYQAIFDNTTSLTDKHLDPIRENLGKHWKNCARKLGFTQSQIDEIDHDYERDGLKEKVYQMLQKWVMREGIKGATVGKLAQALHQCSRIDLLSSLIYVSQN

- CL/F [1]: 17.3 mL/min/kg
- AUC(0-t) [2]: 9640 ng·h/mL
- Cmax [3]: 8040 ng/mL
- AUC(0-t) [4]: 9640 ng·h/mL
- Vd [5]: 1.24 L/kg
- inhibition [6]: Active
- inhibition [7]: Dose-Dependent Effect
SMILES: CC1(Cn2cc(-c3ccc4c(c3)CCN4C(=O)Cc3cccc(OC(F)(F)F)c3)c3c(N)n[nH]c(=O)c32)COC1
- Activity (HT-29): Active
